The results in this text go back to US9278954B2, “Pyrrolidine derivatives, pharmaceutical compositions and uses thereof” (Boehringer Ingelheim International GmbH, priority 2013, dated 2016).

The structures appear in SMILES notation. pIC50: −log10 of the molar value.

One may read the pIC50 as −log10 of the IC50, conventionally taken in molar units. A high value points to a low IC50.

Chain of human ACC2 (O00763 129-2458): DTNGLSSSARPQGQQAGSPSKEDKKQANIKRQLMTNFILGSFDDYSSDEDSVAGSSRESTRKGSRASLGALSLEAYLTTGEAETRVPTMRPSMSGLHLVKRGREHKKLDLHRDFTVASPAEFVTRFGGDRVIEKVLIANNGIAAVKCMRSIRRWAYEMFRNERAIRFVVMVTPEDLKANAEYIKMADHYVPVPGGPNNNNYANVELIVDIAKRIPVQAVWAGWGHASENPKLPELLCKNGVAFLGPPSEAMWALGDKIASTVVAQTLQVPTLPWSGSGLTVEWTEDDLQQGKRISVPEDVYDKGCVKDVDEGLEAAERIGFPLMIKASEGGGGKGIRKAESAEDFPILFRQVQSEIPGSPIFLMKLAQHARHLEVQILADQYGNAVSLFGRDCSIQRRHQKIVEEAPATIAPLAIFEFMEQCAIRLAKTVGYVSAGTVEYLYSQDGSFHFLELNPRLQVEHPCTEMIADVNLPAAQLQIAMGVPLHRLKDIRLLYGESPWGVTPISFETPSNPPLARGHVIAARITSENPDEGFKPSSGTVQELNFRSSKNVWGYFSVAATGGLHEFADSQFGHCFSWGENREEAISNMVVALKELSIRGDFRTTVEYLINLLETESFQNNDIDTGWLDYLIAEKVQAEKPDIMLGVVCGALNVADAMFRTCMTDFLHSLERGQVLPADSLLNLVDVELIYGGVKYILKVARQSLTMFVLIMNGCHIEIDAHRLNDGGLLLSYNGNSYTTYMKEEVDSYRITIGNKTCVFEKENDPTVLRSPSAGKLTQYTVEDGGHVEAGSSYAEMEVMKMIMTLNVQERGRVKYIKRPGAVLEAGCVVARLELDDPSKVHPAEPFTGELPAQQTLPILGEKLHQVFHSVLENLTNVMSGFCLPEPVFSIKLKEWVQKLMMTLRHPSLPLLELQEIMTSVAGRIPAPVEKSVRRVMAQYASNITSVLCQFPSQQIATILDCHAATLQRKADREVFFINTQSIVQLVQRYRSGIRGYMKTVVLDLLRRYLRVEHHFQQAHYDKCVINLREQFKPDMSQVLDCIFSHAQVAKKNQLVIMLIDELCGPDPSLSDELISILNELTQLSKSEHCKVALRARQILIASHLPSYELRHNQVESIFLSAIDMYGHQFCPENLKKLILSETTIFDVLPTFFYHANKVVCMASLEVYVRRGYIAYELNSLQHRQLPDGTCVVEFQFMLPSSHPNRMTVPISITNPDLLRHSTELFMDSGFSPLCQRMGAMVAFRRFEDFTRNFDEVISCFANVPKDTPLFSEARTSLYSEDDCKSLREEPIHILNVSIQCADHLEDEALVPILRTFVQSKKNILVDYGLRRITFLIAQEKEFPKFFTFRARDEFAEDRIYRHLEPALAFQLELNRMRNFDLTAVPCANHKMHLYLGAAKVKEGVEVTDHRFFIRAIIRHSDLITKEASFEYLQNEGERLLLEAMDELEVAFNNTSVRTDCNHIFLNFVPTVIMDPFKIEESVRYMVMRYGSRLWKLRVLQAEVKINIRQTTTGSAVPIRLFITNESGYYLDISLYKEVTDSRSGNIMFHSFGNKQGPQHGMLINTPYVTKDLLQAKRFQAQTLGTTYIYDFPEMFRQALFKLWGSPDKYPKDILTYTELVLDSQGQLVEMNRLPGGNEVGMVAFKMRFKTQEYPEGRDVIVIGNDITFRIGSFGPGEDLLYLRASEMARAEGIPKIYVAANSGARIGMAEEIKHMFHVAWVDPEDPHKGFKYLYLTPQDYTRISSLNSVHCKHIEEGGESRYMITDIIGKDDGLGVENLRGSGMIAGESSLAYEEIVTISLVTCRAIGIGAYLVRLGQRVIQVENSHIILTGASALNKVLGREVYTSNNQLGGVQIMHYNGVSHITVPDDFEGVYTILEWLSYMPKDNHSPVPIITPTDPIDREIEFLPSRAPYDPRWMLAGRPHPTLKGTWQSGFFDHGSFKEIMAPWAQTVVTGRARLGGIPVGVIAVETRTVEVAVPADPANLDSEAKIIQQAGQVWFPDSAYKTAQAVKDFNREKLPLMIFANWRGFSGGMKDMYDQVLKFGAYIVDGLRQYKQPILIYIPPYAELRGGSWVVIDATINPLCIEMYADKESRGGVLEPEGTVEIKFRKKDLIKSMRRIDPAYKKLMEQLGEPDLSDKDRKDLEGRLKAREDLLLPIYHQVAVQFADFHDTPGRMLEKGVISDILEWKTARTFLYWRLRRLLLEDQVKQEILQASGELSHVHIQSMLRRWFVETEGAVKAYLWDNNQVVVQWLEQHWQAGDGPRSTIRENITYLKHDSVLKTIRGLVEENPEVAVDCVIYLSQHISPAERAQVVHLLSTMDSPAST

This assay addresses human ACC2 (Homo sapiens (Human), UniProt O00763). In words: ACC2 assay (spectrophotometric 384 well assay, NADH-linked kinetic method). The class given is biochemical. The settings on record: hACC2 construct lacking the 128 N-terminal amino acids; 25° C., 340 nm over 15 minutes. On the procedure: Spectrophotometric 384 Well Assay
Malonyl CoA formation by acetyl CoA carboxylases is stoichometrically linked to the consumption of ATP. ACC2 activity is measured in a NADH-linked kinetic method measuring ADP generated during the ACC reaction using a coupled lactate dehydrogenase/pyruvate kinase reaction.
The protein is then expressed in insect cells using a baculoviral expression system. Protein purification is performed by anion exchange.
All compounds are dissolved in dimethyl sulfoxide (DMSO) to a concentration of 10 mM.
The enzymatic reaction is then started by addition of a mixture of NADH, acetyl
Coenzyme A (both […].) and ATP (500 uM f.c.). The decrease of the optical density (slope S) is then determined at 25° C. at a wavelength of 340 nm over 15 minutes in a spectrophotometric reader.
Each assay microtiter plate contains wells with vehicle instead of compound as controls for the non-inhibited enzyme (100% CTL; ‘HIGH’) and wells without acetyl-CoA as controls for non-specific NADH degradation (0% CTL; ‘LOW’).
`CC(C(=O)NCC(F)F)c1ccc(O[C@@H]2CCN(c3ncnc(OCC(C)(C)O)c3Cl)C2)cc1` (some centres unmarked) [Example 1.36] had a pIC50 of 6.38.

As for `CCNC(=O)C(C)c1ccc(O[C@@H]2CCN(c3cccc(Cl)c3)C2)cc1` (some centres unmarked) [Example 7.19], the pIC50 was 6.36. The pIC50 values of the last two compounds are within 0.2 log units of each other.

Regarding `CNC(=O)C(C)c1ccc(O[C@@H]2CCN(c3nc(N(C)C)ncc3F)C2)cc1` (some centres unmarked) [Example 1.56], the pIC50 is 6.24.

`CC(C(=O)NC1CC1C)c1ccc(O[C@@H]2CCN(c3ncnc(OCC(C)(C)O)c3Cl)C2)cc1` (single isomer, unassigned) [6.4 isomer 3] showed a pIC50 of 6.90.

For the compound `CCNC(=O)C(C)c1ccc(O[C@@H]2CCN(c3cc(C(F)(F)F)ccc3C)C2)cc1` (some centres unmarked) [Example 7.11], the pIC50 is 6.44. This pIC50 is 0.46 log units lower than that of the compound before.

`C=C(C)CNC(=O)C(C)c1ccc(O[C@@H]2CCN(c3ccc(OCC4CC4(F)F)cn3)C2)cc1` (some centres unmarked) [Example 1.37] showed a pIC50 of 6.38.

Turning to `CC(C(=O)Nc1cccnc1)c1ccc(O[C@@H]2CCN(c3ncnc(OCC(C)(F)F)c3F)C2)cc1` (some centres unmarked) [Example 1.48], the pIC50 was 6.32.

`CC(C(=O)NC1CC1C)c1ccc(O[C@@H]2CCN(c3ncnc(OCC(C)(F)F)c3F)C2)cc1` (some centres unmarked) [Example 1.22] showed a pIC50 of 6.51.

Compound `CCNC(=O)C(C)c1ccc(O[C@@H]2CCN(c3ncnc(OCC(C)(C)O)c3Cl)C2)cc1` (single isomer, unassigned) [6.3 isomer 2] showed a pIC50 of 5.96.

As for `CC(C(=O)Nc1cccnc1)c1ccc(O[C@@H]2CCN(c3ncnc(OCC(C)(C)O)c3Cl)C2)cc1` (some centres unmarked) [Example 3.5], the pIC50 was 6.50.

The compound `CCNC(=O)C(C)c1ccc(O[C@@H]2CCN(c3ccnc(N4CCC(F)(F)C4)n3)C2)cc1` (some centres unmarked) [Example 2.4] showed a negative-log IC50 (pIC50) of 6.40.

On to `CC(C(=O)NC1CC1C)c1ccc(O[C@@H]2CCN(c3ncnc(OCC(C)(C)O)c3Cl)C2)cc1` (some centres unmarked) [Example 1.26], for which the pIC50 was 6.49.

As to `CCCNc1nccc(N2CC[C@@H](Oc3ccc(C(C)C(=O)NC4COC4)cc3)C2)c1F` (some centres unmarked) [Example 1.61], the pIC50 is 6.20.

`CC(C(=O)NCC(F)F)c1ccc(O[C@@H]2CCN(c3ncnc(OCC(C)(F)F)c3F)C2)cc1` (some centres unmarked) [Example 1.46]: the pIC50 was 6.33.

The compound `CC(C(=O)NCC(F)(F)F)c1ccc(O[C@@H]2CCN(c3ccc(OCC4CC4(F)F)cn3)C2)cc1` (some centres unmarked) [Example 1.62] gave a pIC50 of 6.20.

Consider `CCCNC(=O)C(C)c1ccc(O[C@@H]2CCN(c3ccc(OCC4CC4(F)F)cn3)C2)cc1` (some centres unmarked) [Example 1.52], for which the pIC50 is 6.27.

Regarding `CCCNC(=O)C(C)c1ccc(O[C@@H]2CCN(c3ncnc(OCC(C)(F)F)c3F)C2)cc1` (some centres unmarked) [Example 1.75], the pIC50 is 6.09.

With `CC(C(=O)Nc1cccnc1)c1ccc(O[C@@H]2CCN(c3nc(N(C)C)ncc3F)C2)cc1` (some centres unmarked) [Example 3.6], the pIC50 was 6.45.

Compound `CC(C(=O)NC1CCC1)c1ccc(O[C@@H]2CCN(c3ccc(OCC4CC4(F)F)cn3)C2)cc1` (some centres unmarked) [Example 1.82] had a pIC50 of 6.03.

Regarding `CC(C)NC(=O)C(C)c1ccc(O[C@@H]2CCN(c3ncnc(OCC(C)(C)O)c3Cl)C2)cc1` (some centres unmarked) [Example 1.49], the pIC50 is 6.31.

`CC(C(=O)N1CC(F)C1)c1ccc(O[C@@H]2CCN(c3nc(N(C)C)ncc3F)C2)cc1` (some centres unmarked) [Example 1.93] gave a pIC50 of 5.26.

`CC(C(=O)NC1CC1C)c1ccc(O[C@@H]2CCN(c3nc(N(C)C)ncc3F)C2)cc1` (single isomer, unassigned) [6.2 isomer 4] gave a pIC50 of 5.83. Compared with the last compound, the pIC50 is 0.57 log units higher.

Regarding `CC(C(=O)NC1CCOCC1)c1ccc(O[C@@H]2CCN(c3ncnc(OCC(C)(C)O)c3Cl)C2)cc1` (some centres unmarked) [Example 1.91], the pIC50 is 5.53.

`CC(C(=O)NC1CCC1)c1ccc(O[C@@H]2CCN(c3ncnc(OCC(C)(F)F)c3F)C2)cc1` (some centres unmarked) [Example 1.66]: the negative logarithm of the IC50 (pIC50) was 6.16.

Regarding `CC(C(=O)NCC(F)F)c1ccc(O[C@@H]2CCN(c3ncnc(OCC(C)(C)O)c3F)C2)cc1` (some centres unmarked) [Example 3.7], the pIC50 was 6.21.

`CC(C(=O)NCC(F)F)c1ccc(O[C@@H]2CCN(c3ncnc(OCC(C)(C)O)c3Cl)C2)cc1` (single isomer, unassigned) [6.5 isomer 1] showed a pIC50 of 6.87.

The compound `CC(C(=O)NCCCO)c1ccc(O[C@@H]2CCN(c3ccc(OCC4CC4(F)F)cn3)C2)cc1` (some centres unmarked) [Example 1.86] had a pIC50 of 5.86.

Compound `CCNC(=O)C(C)c1ccc(O[C@@H]2CCN(c3ccc(OC(C)CC)cc3)C2)cc1` (some centres unmarked) [Example 7.14] had a pIC50 of 6.39.

In the case of `CC(C(=O)NC1CCC1)c1ccc(O[C@@H]2CCN(c3nc(N(C)C)ncc3F)C2)cc1` (some centres unmarked) [Example 1.78], the pIC50 is 6.06.

For the compound `CCCNc1nccc(N2CC[C@@H](Oc3ccc(C(C)C(=O)NCC)cc3)C2)c1F` (some centres unmarked) [Example 1.11], the pIC50 was 6.67. Against the preceding compound, the pIC50 is 0.61 log units higher.

Compound `CCNC(=O)C(C)c1ccc(O[C@@H]2CCN(c3cccc(C)c3)C2)cc1` (some centres unmarked) [Example 7.16] showed a pIC50 of 6.39.

As to `CCCOc1ccc(N2CC[C@@H](Oc3ccc(C(C)C(=O)NCC)cc3)C2)c(Cl)c1` (some centres unmarked) [Example 7.5], the pIC50 is 6.65. Against the preceding compound, the pIC50 is 0.26 log units higher.
